The source made the active and inactive calls. The calls are words filed in the database; no cut-off is given here.
Legend:
RAW264.7 [1] = assay: Induction of NO production in mouse RAW264.7 cells after 24 hrs by FA-OMe fluorescent probe based/immunomodulatory activity assay; type: functional, cell-based
RAW264.7 [2] = assay: Cytotoxicity against mouse RAW264.7 cells assessed as cell viability at 0.001 to 50 uM after 48 hrs by MTT assay; type: cell-based; conditions: raw264.7, 48 h
RAW264.7 [3] = assay: Induction of reactive oxygen species generation in mouse RAW264.7 cells at 0.01 to 10 uM after 24 hrs by DCF-DA dye-based/immunomodulatory activity assay; type: functional, cell-based
RAW264.7 [4] = assay: Stimulation of lysosomal activity in mouse RAW264.7 cells after 24 hrs by acridine orange based/immunomodulatory activity assay; type: functional, cell-based
RAW264.7 [5] = assay: Stimulation of lysosomal activity in mouse RAW264.7 cells at 0.001 to 1 uM after 24 hrs by acridine orange based/immunomodulatory activity assay; type: functional, cell-based
RAW264.7 [6] = assay: Stimulation of lysosomal activity in mouse RAW264.7 cells at 0.1 uM after 24 hrs by acridine orange based/immunomodulatory activity assay; type: functional
RAW264.7 [7] = assay: Induction of reactive oxygen species generation in mouse RAW264.7 cells at 0.01 uM after 24 hrs by DCF-DA dye-based/immunomodulatory activity assay relative to control; type: functional
RAW264.7 [8] = assay: Induction of NO production in mouse RAW264.7 cells at 0.01 uM after 24 hrs by FA-OMe fluorescent probe based/immunomodulatory activity assay; type: functional
RAW264.7 [9] = assay: Induction of NO production in mouse RAW264.7 cells at 0.1 uM after 24 hrs by FA-OMe fluorescent probe based/immunomodulatory activity assay; type: functional
RAW264.7 [10] = assay: Stimulation of lysosomal activity in mouse RAW264.7 cells at 10 uM after 24 hrs by acridine orange based/immunomodulatory activity assay; type: functional, cell-based
RAW264.7 [11] = assay: Stimulation of lysosomal activity in mouse RAW264.7 cells at 0.1 uM after 24 hrs by acridine orange based/immunomodulatory activity assay relative to 1 ug/ml LPS stimulation; type: functional, cell-based

| Structure (SMILES) | Activity (RAW264.7 [1]) | Activity (RAW264.7 [2]) | Activity (RAW264.7 [3]) | Activity (RAW264.7 [4]) | Activity (RAW264.7 [5]) | Activity (RAW264.7 [6]) | fold change (FC) (RAW264.7 [7]) | Activity (RAW264.7 [8]) | Activity (RAW264.7 [9]) | Activity (RAW264.7 [10]) | Activity (RAW264.7 [11]) |
| --- | --- | --- | --- | --- | --- | --- | --- | --- | --- | --- | --- |
| CC(C)CC(=O)C[C@@H](C)[C@H]1CC[C@H]2C3=C[C@H]4OC[C@H]5O[C@@H](O[C@H]6[C@@H](OC[C@H](O)[C@@H]6O)O[C@H]6[C@H](O[C@H]7CC[C@@](C)([C@@H]4C7)[C@H]3CC[C@]12C)O[C@H](C(=O)O)[C@@H](O)[C@@H]6O)[C@H](O)[C@@H](O)[C@@H]5O | inactive | Non-toxic | inactive | – | – | – | – | – | – | – | – |
| CC(C)CC(=O)C[C@@H](C)[C@H]1CC[C@H]2C3=C[C@H]4OC[C@H]5O[C@@H](O[C@H]6[C@@H](OC[C@H](O)[C@@H]6O)O[C@H]6[C@H](O[C@H]7CC[C@@](C)([C@@H]4C7)[C@H]3CC[C@]12C)O[C@H](C(=O)O)[C@@H](O)[C@@H]6O)[C@H](O)[C@@H](O)[C@H]5O | Dose-dependent effect | Non-toxic | Active | Dose-dependent effect | Active | 50% | 2 | 15% | 15% | inactive | Active |

From ChEMBL document CHEMBL3585307, “Cyclic Steroid Glycosides from the Starfish Echinaster luzonicus: Structures and Immunomodulatory Activities” (J Nat Prod, 2015)
